# According to patent US20100317613A1, “ACTIVITY ENHANCER FOR DETOXIFYING ENZYME” (TAKARA BIO INC., priority 2006, published 2010):
# Tests used:
# mouse = assay: Single oral dose toxicity in mouse; assay type: in vivo; conditions: oral, 2,000 mg/kg body weight as a single dose
# Description: For example, in the case of oral administration, there is no fatal case when agarobiose, agarotetraose, agarohexaose, agarooctaose, a mixture thereof, or DGE is administered to a mouse in an amount of 2,000 mg/kg body weight as a single dose. Further, there is no fatal case when the above-described active ingredient is administered orally as a single dose of 2,000 mg/kg body weight to a rat.
# Quinone Reductase (QR) = assay: Quinone reductase (QR) activity in Hepa1c1c7 cells; assay type: cell-based; conditions: for QR activity (fold vs water control): Table 3 (QR activity test), 24 hours; for QR activity (fold vs water control) / QR activity (−fold): relative to water control
# Description: A QR activity was measured by a partially modified method from a method described in Hans J. Prochaska et al., Analytical Biochemistry 169, 328-336 (1988). Hepa1c1c7 cells were suspended in a Dulbecco-modified Eagle medium containing 10% of fetal bovine serum and 1% of penicillin-streptomycin at 4×10^5 cells/ml. To each well of a 96 well-microtiter plate, 0.2 ml of the cell suspension was added, and cultured at 37° C. overnight in the presence of 5% carbon dioxide gas. Then, the medium in the wells was replaced with a Dulbecco-modified Eagle medium. To each well, 0.4 μl of a solution of a test substance in water was added and then cultured for 24 hours. The agarobiose obtained in Preparation Example 1 and a commercially available agaro-oligosaccharide (trade name: Agaoligo) were used as test substances. For a negative control, water was added in place of a test substance. After completion of the culture, the medium was removed and the cells were washed with a phosphate buffer. Then, 0.1 ml of a cell-lysis solution (2 mM EDTA (pH 7.8), 1% NP-40) was added and incubated at 37° C. for 10 minutes to obtain an enzyme solution. To 25 it of the enzyme solution, 100 it of a reaction solution (25 mM Tris-HCl (pH 7.4), 0.67% BSA, 0.01% Tween 20, 5 μM FAD, 1 mM G6P, 30 μM NADP, 0.3 mg/ml MTT, 2 U/ml G6PDH (manufactured by Sigma)) was added. At this time, a substrate was added or not added. In the case where a substrate was added, menadion (manufactured by Sigma) was further added at a final concentration of 50 μM into the reaction solution. After incubation at room temperature for 30 minutes, 75 μl of 2N Na2CO3 was added to terminate the reaction, and an absorbanc at 590 nm was measured. This activity assay was performed in triplicate. The protein content was measured by using a 50-fold dilution of the enzyme solution with a phosphate buffer and MicroBCA protein assay kit. The QR activity was expressed as a QR activity relative to the control and calculated by the following formula.
# QR activity={[(Absorbance in test substance-added section in the presence of substrate)−(Absorbance in test substance-added section in the absence of substrate)]/(Protein content in test substance-added section)}/{[(Absorbance in water-added section in the presence of substrate)−(Absorbance in water-added section in the absence of substrate)]/(Protein content in water-added section)}
# [1] = test system: Glutathione S-transferase (GST); assay: Enhancing effect on glutathione S-transferase (GST) activity in Hepa1c1c7 cells; assay type: cell-based; conditions: for GST activity (−fold): relative to water control
# Description: Hepa1c1c7 cells (ATCC CRL-2026) were suspended in a Dulbecco-modified Eagle medium (manufactured by Sigma) containing 10% of fetal bovine serum (manufactured by MP Biomedicals Co.) and 1% of penicillin-streptomycin (manufactured by Nacalai Tesque, Inc.) at 4×10^5 cells/ml. To each well of a 96 well-microtiter plate, 0.2 ml of the cell suspension was added, and cultured at 37° C. overnight in the presence of 5% carbon dioxide gas. Then, the medium in the wells was replaced with a Dulbecco-modified Eagle medium. To each well, 0.4 μl of a solution of a test substance in water was added and then cultured for 24 hours. The agarobiose obtained in Preparation Example 1 and a commercially available agaro-oligosaccharide (trade name: Agaoligo, manufactured by Takara Bio Inc., containing agarobiose, agarotetraose, agarohexaose and agarooctaose in 20 to 25% each) were used as test substances. For a negative control, water was added in place of a test substance. After completion of the culture, the medium was removed and the cells were washed with a phosphate buffer. Then, 0.1 ml of a cell-lysis solution (10 mM Tris-HCl (pH 7.4), 38.5 mM KCl, and 1 mM EDTA, 1% NP-40) was added and incubated at 37° C. for 10 minutes to obtain an enzyme solution. To 25 μl of the enzyme solution, 155 μl of a reaction solution (0.13 M potassium phosphate buffer solution (pH 6.5), 1.3 mM glutathione) was added. Immediately before measurement, 20 al of 10 mM of CDNB (2,4-dinitrochlorobenzene, manufactured by TOKYO CHEMICAL INDUSTRY CO., LTD.) as a reaction substrate was added, and a change in an absorbance at 340 nm was measured. This activity assay was performed in triplicate. The protein content was measured by using a 50-fold dilution of the enzyme solution with a phosphate buffer and MicroBCA protein assay kit (manufactured by PIERCE Co.). The GST activity was expressed as a GST activity relative to the control and calculated by the following formula.
# GST activity=(Maximum rate coefficient in test substance-added section/Protein content in test substance-added section)/(Maximum rate coefficient in water-added section/Protein content in water-added section)
# An effect on a GST activity caused by using DGE obtained in Preparation Example 2 was determined in accordance with Example 1. Each measurement was repeated three times. The GST activity was expressed as a GST activity relative to the control and calculated by the same formula as in Example 1.
# [2] = test system: Intracellular Glutathione (GSH); assay: Enhancing effect on intracellular glutathione (GSH) content in Hepa1c1c7 cells; assay type: cell-based; conditions: for GSH content (−fold): 24 hours, relative to water control
# Description: […] was measured by a partially modified method from a method described in Clarissa Gerhauser et al., Cancer Research 57, 272-278 (1997). Hepa1c1c7 cells were suspended in a Dulbecco-modified Eagle medium containing 10% of fetal bovine serum and 1% of penicillin-streptomycin at 4×10^5 cells/ml. To each well of a 96 well-microtiter plate, 0.2 ml of the cell suspension was added, and cultured at 37° C. overnight in the presence of 5% carbon dioxide gas. Then, the medium in the wells was replaced with a Dulbecco-modified Eagle medium. To each well, 0.4 μl of a solution of a test substance in water was added and then cultured for 24 hours. The agarobiose obtained in Preparation Example 1 and a commercially available agaro-oligosaccharide (trade name: Agaoligo) were used as test substances. For a negative control, water was added in place of a test substance. After completion of the culture, the medium was removed and the cells were washed with a phosphate buffer. The solution was removed, and freeze-thaw of the cells was repeated three times. Thereto was added 0.1 ml of buffer A ([…] sodium phosphate buffer (pH 7.5), 6.3 mM EDTA) to obtain a cell lysate. To 25 it of the cell lysate, 100 al of a reaction solution (25 mM Tris-HCl (pH 7.4), 1 mM G6P, 30 μM NADP, 2 U/ml G6PDH, 0.25 U/ml glutathione reductase (manufactured by Sigma), 0.6 mM DTNB) was added. After incubation at room temperature for 5 minutes, an absorbance at 405 nm was measured. This activity assay was performed in triplicate. At the same time, as a standard, serial 2-fold dilutions of 2 to 200 al of […] were used in place of the cell lysate. The protein content was measured by using a 50-fold dilution of the cell lysate with a phosphate buffer and MicroBCA protein assay kit. The GSH content was expressed as a GSH content relative to the control and calculated by the following formula.
# GSH content=[(GSH content in test substance-added section)/(Protein content in test substance-added section)]/[(GSH content in water-added section)/(Protein content in water-added section)]
# HL-60 cell = assay: Cancer cell growth suppressing activity using HL-60 cell; assay type: cell-based; conditions: HPLC fraction at retention time 4.05 to 4.16 minutes, found to be DGE
# Description: The neutralized product was subjected to the following normal phase HPLC. Each peak was collected, dried under reduced pressure and then dissolved in water. A cancer cell growth suppressing activity of each fraction was measured using a HL-60 cell.
# [3] = 24 hours, final concentration 100 μM
# [4] = 24 hours, final concentration 200 μM
compound,measurement,setting,value
"OC[C@H]1O[C@@H](O[C@H]2[C@H]3OC[C@@H]2OC(O)[C@H]3O)[C@H](O)[C@@H](O)[C@H]1O (mixture of isomers) [Agarobiose, agarobiose]",Fatal cases after oral administration,mouse,no fatal case
same,Effect on QR activity (in words),Quinone Reductase (QR),significant increase
same,QR activity (fold vs water control),Quinone Reductase (QR); final concentration 25 μM,1.4
same,QR activity (fold vs water control),Quinone Reductase (QR); final concentration 50 μM,1.4
same,QR activity (fold vs water control),Quinone Reductase (QR); final concentration 100 μM,1.8
same,QR activity (fold vs water control),Quinone Reductase (QR); final concentration 200 μM,2.2
same,Effect on GST activity (in words),[1],significant increase
same,GST activity (−fold),"[1]; 24 hours, final concentration 25 μM",1.4 fold
same,GST activity (−fold),"[1]; 24 hours, final concentration 50 μM",1.5 fold
same,GST activity (−fold),[1]; [3],1.9 fold
same,GST activity (−fold),[1]; [4],1.9 fold
same,Effect on GSH content (in words),[2],significant increase
same,GSH content (−fold),[2]; final concentration 100 μM,1.3 fold
same,GSH content (−fold),[2]; final concentration 200 μM,1.9 fold
OC[C@H]1O[C@@H](O[C@H]2[C@H]3OC[C@@H]2O[C@@H](O[C@H]2[C@@H](O)[C@@H](CO)O[C@@H](O[C@H]4[C@H]5OC[C@@H]4O[C@@H](O[C@H]4[C@@H](O)[C@@H](CO)O[C@@H](O[C@H]6[C@H]7OC[C@@H]6OC(O)[C@H]7O)[C@@H]4O)[C@H]5O)[C@@H]2O)[C@H]3O)[C@H](O)[C@@H](O)[C@H]1O (mixture of isomers) [agarohexaose],Fatal cases after oral administration,mouse,no fatal case
"O=C1C=CC(CO)OC1O [DGE, L-glycero-1,5-epoxy-1αβ,6-dihydroxy-cis-hexa-3-en-2-one]",Fatal cases after oral administration,mouse,no fatal case
same,Effect on GST activity (in words),[1],significant increase
same,GST activity (−fold),[1]; final concentration 5 μM,1.4 fold
same,GST activity (−fold),[1]; final concentration 10 μM,1.4 fold
same,GST activity (−fold),[1]; final concentration 20 μM,1.6 fold
same,Cancer cell growth suppressing activity,HL-60 cell,had a cancer cell growth suppressing activity
"OC[C@H]1O[C@@H](O)[C@H](O)[C@@H](O[C@@H]2O[C@H]3CO[C@@H]([C@@H]2O)[C@@H]3O[C@@H]2O[C@H](CO)[C@H](O)[C@H](O[C@@H]3O[C@H]4CO[C@@H]([C@@H]3O)[C@@H]4O[C@@H]3O[C@H](CO)[C@H](O)[C@H](O[C@@H]4O[C@H]5CO[C@@H]([C@@H]4O)[C@@H]5O)[C@H]3O)[C@H]2O)[C@H]1O [Neoogarohexaose, neoagarohexaose, reference compound]",Effect on QR activity (in words),Quinone Reductase (QR),did not result in a significant increase
same,QR activity (−fold),Quinone Reductase (QR); final concentration 100 μM,1.0 fold
same,QR activity (−fold),Quinone Reductase (QR); final concentration 200 μM,1.1 fold
same,Effect on GST activity (in words),[1],did not result in a significant increase
same,GST activity (−fold),[1]; [3],1.1 fold
same,GST activity (−fold),[1]; [4],1.1 fold
OC[C@H]1O[C@@H](O[C@H]2[C@H]3OC[C@@H]2O[C@@H](O[C@H]2[C@@H](O)[C@@H](CO)O[C@@H](O[C@H]4[C@H]5OC[C@@H]4OC(O)[C@H]5O)[C@@H]2O)[C@H]3O)[C@H](O)[C@@H](O)[C@H]1O (some centres unmarked) [agarotetraose],Fatal cases after oral administration,mouse,no fatal case
agarooctaose,Fatal cases after oral administration,mouse,no fatal case
